Results on 29 compounds are retold here after PubChem BioAssay (NCI).

Common to all, as to test: NCI-60 cell line screen, 48 h
Experiment [1] has as its system HCT-116 colon.
The test system of experiment [2] is HT29 colon.
Experiment [3] deals with IGROV1 ovarian.
For experiment [4], the system named is KM12 colon.
Experiment [5] has as its system NCI/ADR-RES ovarian.
Experiment [6] relates to OVCAR-8 ovarian.
In experiment [7] the test system is SF-539 CNS.
In experiment [8] the test system is SN12C renal.
Experiment [9] relates to UACC-257 melanoma.

Several values for one entry are separate records, joined by “and”; a condition that tells them apart may be missing. Identical values can stand only once.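 Step 1: Grow cells in 96-well plates. Step 2: Expose to compound for 48 hours at 5 concentrations. Step 3: Interpolate endpoints linearly; if unreached, use highest concentration. GI50 is the concentration that inhibits growth by half. TGI: concentration producing complete growth inhibition.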

As for `Cn1c2c(c3c(Cl)nncc31)Cc1ccccc1-2`, the GI50 in [1] is 17.9 µM; in experiment [2] it was 16.9 µM; in experiment [3] it was 48.9 µM; in experiment [4], 32.8 µM; in experiment [5], 16.3 µM; in [6] it was 25.5 µM. Further, the GI50 in experiment [7] is 20 µM; in experiment [8] it was 20.8 µM; in experiment [9] it was 48.7 µM. The TGI in experiment [1] is above 100 µM; in experiment [2] it was 44.5 µM; in experiment [3] it was above 100 µM; in experiment [4], above 100 µM; in [5], 44.5 µM; in [6] it was above 100 µM. For the same compound, the TGI is 76.1 µM in experiment [7], 81.7 µM in [8] and above 100 µM in experiment [9].
Consider `COC1(OC)C2(Cl)C(Cl)=C(Cl)C1(Cl)C1C2C2CC1(C(=O)O)c1ccccc12` (centres undefined), for which the TGI in experiment [1] amounted to 33.8 µM; in experiment [2], 76.3 µM; in [3], 69.5 µM; in experiment [6], 88.3 µM; in experiment [8], 40.9 µM; in [9] it was 47.4 µM.
For the compound `COC(=O)C1=CC2C=CC(C1C(=O)OC)C1C(C(=O)OC)=C(C(=O)OC)C(C(=O)OC)=C(C(=O)OC)C21OC` (centres undefined), the TGI in [1], in experiment [2], in experiment [3], in experiment [6], in [7] and in [8] was above 100 µM in each case. Besides, the TGI in experiment [9] is above 100 µM.
In the case of `N#CC(C(=O)/C(=N\NC(N)=O)C(C#N)c1ccccc1)c1ccccc1` (centres undefined), the TGI in [1], in experiment [2], in [3], in [4], in experiment [6] and in experiment [7] was above 100 µM throughout. For the same compound, the TGI in experiment [8] and in experiment [9] was above 100 µM throughout.
`COc1cc(C(=O)c2cnc(-c3cccc4[nH]ccc34)[nH]2)cc(OC)c1OC`: the GI50 in experiment [1] is 0.0673 µM and < 0.01 µM; in experiment [2] it was 0.0493 µM and < 0.01 µM; in [3], 0.0966 µM and < 0.01 µM; in experiment [4], 0.04 µM and < 0.01 µM; in experiment [5], 0.0729 µM and < 0.01 µM; in experiment [7] it was 0.0278 µM and < 0.01 µM. Besides, in experiment [9], the GI50 was 11.9 µM. The TGI in experiment [1] was above 100 µM; in [2], below 0.01 µM; in experiment [3], above 100 µM; in [4], 24 µM; in experiment [5], above 100 µM; in experiment [6] it was 48.2 µM. Besides, the TGI in experiment [8] and in experiment [9] was above 100 µM in each case.
Consider `NC1=NN(c2ccccc2)C(=O)C1C(=O)C(=O)Nc1ccc(Cl)c(Cl)c1` (centres undefined), for which the TGI in [1], in experiment [2], in experiment [3], in experiment [4], in experiment [6] and in experiment [7] was above 100 µM throughout. For the same compound, the TGI in [8] and in [9] was above 100 µM each time.
In the case of `Cc1cc(=O)n(-c2cc3cccccc-3n2)[nH]1`, the TGI in experiment [1] was 5.27 µM; in experiment [2], 35.6 µM; in experiment [3], 8.45 µM; in experiment [4], 91.5 µM; in experiment [7] it was 59 µM; in experiment [8] it was 62.3 µM. The compound further displayed a TGI in experiment [9] of 48.3 µM.
`COC(=O)[C@@H]1Cc2c([nH]c3ccccc23)[C@H](c2ccccc2)N1`: the TGI in [1] was above 100 µM; in [2] it was above 100 µM; in [3], 92 µM; in [4], above 100 µM; in experiment [6], above 100 µM; in experiment [7] it was 67.3 µM. Further, the TGI in experiment [8] was 81.5 µM; in [9] it was above 100 µM.
Consider `CCOc1ccccc1N=Nc1c(-c2ccccc2)nn(C(=O)CC(=O)Nc2cccc(C)c2)c1-c1ccccc1`, for which the TGI in [1], in experiment [2], in experiment [3], in [4], in [6] and in experiment [7] was above 100 µM in each case. For the same compound, the TGI in [8] and in [9] was above 100 µM throughout.
Turning to `COC(=O)C1C(=O)O[C@@H](c2cc(OC)c(OC)cc2OC)C1C(=O)OC` (mixture of isomers), the TGI in experiment [1], in [2], in experiment [3], in [4], in [6] and in experiment [7] was above 100 µM each time. For the same compound, the TGI in experiment [8] and in experiment [9] was above 100 µM throughout.
As to `O=C(Nc1ccc(Cl)cc1Cl)OC(Cn1cncn1)c1ccc(Cl)cc1Cl` (centres undefined), the TGI in experiment [1] stood at 27.1 µM; in experiment [2] it was 28.5 µM; in experiment [3], 31.4 µM; in experiment [4], 31 µM; in experiment [6], 31.8 µM; in experiment [7] it was 32.5 µM. The TGI is 30.7 µM in experiment [8] and 30.9 µM in [9].
Take `CNS(=O)(=O)NNS(=O)(=O)c1ccc(OC)cc1`: the TGI in experiment [1], in experiment [2], in experiment [3], in experiment [4], in experiment [6] and in experiment [7] was above 100 µM in each case. The same compound displayed a TGI in [9] above 100 µM.
Consider `C/C=C1\CN2CCc3c([nH]c4ccccc34)C2CC1CCO` (centres undefined), for which the TGI in [1], in experiment [2], in experiment [3], in experiment [4], in experiment [6] and in experiment [7] was above 100 µM each time. The TGI in experiment [8] and in [9] was above 100 µM each time.
Regarding `Clc1cccc(C2N3CCCCC3[C@@H]3c4[nH]c5ccccc5c4CCN23)c1` (some centres undefined), the TGI in experiment [1] was 30.8 µM; in [2], 34.2 µM; in experiment [3], above 100 µM; in experiment [6], above 100 µM; in experiment [7], 57.7 µM; in experiment [8] it was 26.5 µM. Further, the TGI in [9] was 98.2 µM.
In the case of `CC(=O)[C@H]1CCC2[C@@H]3CC=C4C[C@@H]([O-])CC[C@]4(C)C3CC[C@@]21C.CC(=O)[C@H]1CCC2[C@@H]3CC=C4C[C@@H]([O-])CC[C@]4(C)C3CC[C@@]21C.CC(=O)[CH-]C(=O)c1ccccc1.CC(=O)[CH-]C(=O)c1ccccc1.Cl.[Ti+4]` (some centres undefined), the GI50 in experiment [1] was 25.7 µM; in experiment [2], 14.2 µM; in [3], 25.9 µM; in experiment [4] it was 26.4 µM; in experiment [6], 19.8 µM; in experiment [7], 9.44 µM. Also, the results for the GI50 in [8] and in [9] were 34.1 µM and 16.2 µM, respectively. Moreover, the TGI was above 100 µM in experiment [1]; above 100 µM in experiment [2]; 87.1 µM in experiment [3]; above 100 µM in experiment [4]; 79.2 µM in experiment [6]; above 100 µM in experiment [8]. For the same compound, in [9], the TGI worked out at 69.7 µM.
For the compound `O=C1C2C3CC(C4C5C=CC(C5)C34)C2C2C3CC(C12)C1C2C=CC(C2)C31` (centres undefined), the TGI in experiment [1], in experiment [2], in [3], in experiment [4], in experiment [6] and in [7] was above 100 µM in each case. The TGI in experiment [8] and in experiment [9] was above 100 µM throughout.
For `CCNC(=O)OCc1c(COC(=O)NCC)c(-c2ccc(Cl)c(Cl)c2)n2c1CCC2`, the TGI in experiment [1] is 33.6 µM; in experiment [2], above 100 µM; in experiment [3] it was 48.7 µM; in experiment [4], 59 µM; in [6] it was 41.7 µM; in experiment [7], 25.6 µM. This compound showed a TGI in experiment [9] of 83.8 µM.
As for `Nc1c(Cl)ncnc1NCCCCCCCCCCCCNc1ncnc(Cl)c1N`, the TGI in experiment [1] was 6.05 µM; in experiment [2] it was 49.8 µM; in experiment [3], above 100 µM; in experiment [4], above 100 µM; in experiment [6] it was above 100 µM; in experiment [7], 30.3 µM. For the same compound, the TGI came out at 39.6 µM in experiment [8] and 4.21 µM in experiment [9].
Turning to `Cc1cc(C)c(-c2noc(-c3ccc(Cl)cc3)c2C2=NCCCN2)c(C)c1`, the TGI was above 100 µM in [1]; 32.5 µM in [2]; above 100 µM in [3]; above 100 µM in experiment [4]; above 100 µM in experiment [6]; 30.5 µM in [7]. The TGI is 82.6 µM in [8] and 40.6 µM in experiment [9].
As to `COc1ccc(S(=O)(=O)N(CC(=O)O)c2ccccc2)cc1`, the TGI in [2], in experiment [3], in experiment [4], in experiment [6], in experiment [7] and in experiment [8] was above 100 µM in each case. In experiment [9], this compound had a TGI above 100 µM.
As to `O=C(c1ccc(Cl)cc1)c1ccc(OCCCOc2ccc(C(=O)c3ccc(Cl)cc3)cc2Cl)c(Cl)c1`, the TGI in experiment [1], in [2], in [3], in experiment [4], in experiment [6] and in experiment [7] was above 100 µM throughout. The TGI in experiment [8] and in [9] was above 100 µM in each case.
For `Cc1cccc(C)c1N1C(=O)C(=O)C(c2nc3ccccc3s2)/C(=N\N)C1=O` (centres undefined), the TGI in experiment [1], in [2], in [3], in [4], in experiment [6] and in [7] was above 100 µM in each case. The TGI in experiment [8] and in experiment [9] was above 100 µM each time.
For `CN(/N=C/c1ccnc2ccccc12)c1c([N+](=O)[O-])cc([N+](=O)[O-])cc1[N+](=O)[O-]`, the TGI in [2], in experiment [3], in experiment [4], in [6], in experiment [7] and in experiment [8] was above 100 µM each time. In experiment [9], the TGI was above 100 µM.
Turning to `N/N=C(/Cc1nc2ccc(C(=O)c3ccccc3)cc2[nH]c1=O)C(=O)Nc1ccc([N+](=O)[O-])cc1[N+](=O)[O-]`, the GI50 in experiment [1], in experiment [2], in experiment [3] and in experiment [8] was above 100 µM each time. Further, the TGI in experiment [1], in [2], in experiment [3], in [4], in experiment [6] and in [7] was above 100 µM throughout. Moreover, the TGI in experiment [8] and in [9] was above 100 µM each time.
As to `Cc1nc2c(o1)C(=Nc1ccccc1)c1nc(C)oc1C2=Nc1ccccc1`, the TGI in experiment [1] turned out to be 37.6 µM; in [2], 45.5 µM; in [3] it was 52.1 µM; in [6], 34.3 µM; in experiment [7], 27.3 µM; in [8], 34.8 µM. The compound further yielded a TGI in [9] of 97.6 µM.
In the case of `COc1ccc(OC)c(/C=N/N=C(\N)NO)c1`, the TGI in experiment [1], in experiment [2], in experiment [3], in [4], in experiment [6] and in [7] was above 100 µM in each case. Moreover, the TGI in experiment [8] and in [9] was above 100 µM in each case.
As for `O=C(/C=C/c1cccc([N+](=O)[O-])c1)c1ccc([N+](=O)[O-])cc1`, the TGI in experiment [1], in experiment [2], in [3], in experiment [4], in [6] and in experiment [7] was above 100 µM throughout. Also, the TGI in [8] and in experiment [9] was above 100 µM in each case.
`O=C(/C=C\c1cccc2ccccc12)c1ccc(Cl)cc1Cl`: the TGI in experiment [1] was 33.6 µM; in [2] it was 35.8 µM; in [3] it was above 100 µM; in experiment [4], 31 µM; in experiment [6], 37.3 µM; in experiment [7], 53.2 µM. Moreover, the TGI is above 100 µM in experiment [8] and 75.3 µM in [9].
Take `O=C(Nc1ccc(Cl)c(Cl)c1)C(=O)C(C(=O)c1ccccc1-c1ccccc1)C1OC(=O)c2ccccc21` (centres undefined): the TGI in experiment [1] is 22.3 µM; in experiment [2] it was above 100 µM; in [3], 73.5 µM; in experiment [4], 43.2 µM; in experiment [6] it was 84.5 µM; in experiment [7], 27.9 µM. For the same compound, in experiment [9], the TGI is above 100 µM.
